Reference: US12507703B2, “Methods, devices and compositions for preserving human milk” (The Trustees of Princeton University, priority 2023, dated 2025)
Where “and” joins values, the source holds several entries; their conditions need not be identical. Equal entries are not always repeated.

test system: lipase; experiment: Lipase/lipolysis assay (EnzChek Lipase Substrate, quenched BODIPY-fatty acid conjugate) on stored human milk; note: test concentration or dose not given here

Q: `OC[C@@H](O)[C@@H](O[C@H]1O[C@H](CO)[C@@H](O)[C@H](O)[C@H]1O)[C@H](O)[C@@H](O)CO` [Maltitol] was tested. Which “Lipase (RFU)” value did it give?
A: 943.5543 RFU

Q: With `N[C@@H](CS(=O)O)C(=O)O` [L-Cysteine Sulfinic Acid] as the molecule, how does the “Lipase (RFU)” value read?
A: 845.2477 RFU

Q: For `CC(C)=CCC[C@](C)(O)[C@H]1CC[C@]2(C)[C@@H]1[C@H](O)C[C@@H]1[C@@]3(C)CC[C@H](O[C@@H]4O[C@H](CO)[C@@H](O)[C@H](O)[C@H]4O[C@@H]4O[C@H](CO)[C@@H](O)[C@H](O)[C@H]4O)C(C)(C)[C@@H]3CC[C@]12C` [20(S)-Ginsenoside Rg3], which “Lipase (RFU)” value is on record?
A: 979.4673 RFU

Q: Which “Lipase (RFU)” value does the source give for `COc1ccc(-c2cc(=O)c3c(OC)cc(OC)c(OC)c3o2)cc1` [6-Demethoxytangeretin] here?
A: 818.2248 RFU

Q: With `CC1(C)S[C@@H]2[C@H](NC(=O)[C@H](N)c3ccccc3)C(=O)N2[C@H]1C(=O)[O-].[Na+]` [Ampicillin (sodium)] as the molecule, how does the “Lipase (RFU)” value read?
A: 844.0223 RFU

Q: Which “Lipase (RFU)” value does the source give for `O=C1O[C@H]([C@@H](O)CO)[C@H](O)[C@@H]1O` [L-Gulono-1,4-lactone] here?
A: 1139.877 RFU

Q: With `CCO[C@@H]1O[C@H](C(=O)O)[C@@H](O)[C@H](O)[C@H]1O` [Ethyl glucuronide] as the molecule, how does the “Lipase (RFU)” value read?
A: 1053.076 RFU

Q: `OC[C@H]1O[C@H](O[C@H]2O[C@H](CO)[C@@H](O)[C@H](O)[C@H]2O)[C@H](O)[C@@H](O)[C@@H]1O` [D-(+)-Trehalose] was tested. Which “Lipase (RFU)” value did it give?
A: 893.2005 RFU and 909.0228 RFU

Q: How did the “Lipase (RFU)” value turn out when (+)-Catechin hydrate was run?
A: 928.2252 RFU

Q: For `C=CC/C(=N/OS(=O)(=O)[O-])S[C@@H]1OC(CO)[C@@H](O)C(O)C1O.[K+]` (stereo partly drawn) [Sinigrin], which “Lipase (RFU)” value is on record?
A: 1002.884 RFU

Q: How did the “Lipase (RFU)” value turn out when `NC(Cc1ccc(O)c(O)c1)C(=O)O` (racemic) [DL-Dopa] was run?
A: 819.29 RFU

Q: `O=C(/C=C/c1ccc(O)c(O)c1)O[C@@H]1CC(O)(C(=O)O)C[C@@H](OC(=O)/C=C/c2ccc(O)c(O)c2)C1O` (stereo partly drawn) [Isochlorogenic acid A] was tested. Which “Lipase (RFU)” value did it give?
A: 827.6093 RFU

Q: `C[n+]1cn([C@@H]2O[C@H](CO)[C@@H](O)[C@H]2O)c2nc(N)[nH]c(=O)c21` [Compound 7-Methylguanosine, 7-Methylguanosine] was tested. Which “Lipase (RFU)” value did it give?
A: 974.6149 RFU

Q: For `O=C([O-])[O-].[Ca+2]` [Calcium carbonate], which “Lipase (RFU)” value is on record?
A: 646.797 RFU

Q: For `C=CCSSCC=C` [Diallyl disulfide], which “Lipase (RFU)” value is on record?
A: 1000.398 RFU and 1055.55 RFU

Q: How did the “Lipase (RFU)” value turn out when `CC(C)=C1C/C=C(\C)CC/C=C(\C)CC1=O` [Germacrone] was run?
A: 974.0245 RFU

Q: Which “Lipase (RFU)” value does the source give for `C[C@@H]1O[C@@H](OC[C@H]2O[C@@H](Oc3c(-c4ccc(O)cc4)oc4cc(O)cc(O)c4c3=O)[C@H](O[C@@H]3OC[C@@H](O)[C@H](O)[C@H]3O)[C@@H](O)[C@@H]2O)[C@H](O)[C@H](O)[C@H]1O` [Camelliaside B] here?
A: 927.4235 RFU

Q: With (−)-Limonene as the molecule, how does the “Lipase (RFU)” value read?
A: 914.6466 RFU and 836.6929 RFU

Q: For `O=C1O[C@H]([C@H](O)CO)C(O)=C1O` [Erythorbic acid], which “Lipase (RFU)” value is on record?
A: 1131.679 RFU

Q: Which “Lipase (RFU)” value does the source give for `OC[C@H]1O[C@H](OC[C@H]2O[C@H](O[C@]3(CO)O[C@H](CO)[C@@H](O)[C@@H]3O)[C@H](O)[C@@H](O)[C@@H]2O)[C@H](O)[C@@H](O)[C@H]1O` [D-Raffinose] here?
A: 981.0683 RFU

Q: Which “Lipase (RFU)” value does the source give for `O=C[C@H](O)[C@H]1OC(=O)[C@@H](O)[C@H]1O` [D-Glucuronic acid lactone] here?
A: 1111.254 RFU

Q: `O=C1C=C2C(=CCOC2O)O1` (stereo not drawn) [Patulin] was tested. Which “Lipase (RFU)” value did it give?
A: 1145.028 RFU

Q: How did the “Lipase (RFU)” value turn out when `O=P(O)(O)O[C@H]1O[C@H](CO)[C@@H](O)[C@H](O)[C@@H]1O` [D-Mannose-1-Phosphate] was run?
A: 1121.007 RFU

Q: For `COc1cc2oc3cc(OC)c(OC)c(CC=C(C)C)c3c(=O)c2c(O)c1CC=C(C)C` [Fuscaxanthone C], which “Lipase (RFU)” value is on record?
A: 819.3619 RFU

Q: For `COc1cc(-c2cc(=O)c3c(O)cc(O)cc3o2)cc(OC)c1O` [Tricin], which “Lipase (RFU)” value is on record?
A: 691.2218 RFU

Q: For `COc1ccccc1OC` [1,2-Dimethoxybenzene], which “Lipase (RFU)” value is on record?
A: 1094.378 RFU and 752.9866 RFU

Q: `O=C1C[C@@H](C(=O)O)NC(=O)N1` [L-Dihydroorotic acid] was tested. Which “Lipase (RFU)” value did it give?
A: 1002.656 RFU

Q: `O=C(O)CCCC(=O)C(=O)O` [Oxoadipic acid] was tested. Which “Lipase (RFU)” value did it give?
A: 732.376 RFU

Q: `NC(=O)CCCCC1CCSS1` (racemic) [D,L-Lipoamide] was tested. Which “Lipase (RFU)” value did it give?
A: 1094.48 RFU

Q: With `CC1=CC(=O)CC(C)(C)C1=O` [Ketoisophorone] as the molecule, how does the “Lipase (RFU)” value read?
A: 818.3204 RFU and 1086.358 RFU

Q: `O=c1cc(-c2ccc(O)cc2)oc2c([C@@H]3O[C@H](CO)[C@@H](O)[C@H](O)[C@H]3O)c(O)c([C@@H]3OC[C@@H](O)[C@H](O)[C@H]3O)c(O)c12` [Vicenin-1] was tested. Which “Lipase (RFU)” value did it give?
A: 1046.904 RFU

Q: How did the “Lipase (RFU)” value turn out when `C=C1C[C@@]23CC[C@H]4[C@@](C)(CCC[C@@]4(C)C(=O)O)[C@@H]2CC[C@]1(O[C@@H]1O[C@H](CO)[C@@H](O)[C@H](O)[C@H]1O[C@@H]1O[C@H](CO)[C@@H](O)[C@H](O)[C@H]1O)C3` [Steviolbioside] was run?
A: 1061.907 RFU

Q: For `CCCCC/C=C\C/C=C\CCCCCCCC(=O)OCC(COC(=O)CCCCCCC/C=C\C/C=C\CCCCC)OC(=O)CCCCCCC/C=C\C/C=C\CCCCC` [Trilinolein], which “Lipase (RFU)” value is on record?
A: 834.4039 RFU

Q: Which “Lipase (RFU)” value does the source give for `C[C@@H]1CC[C@@]2(OC1)O[C@H]1C[C@H]3[C@@H]4CC=C5C[C@@H](O[C@@H]6O[C@H](CO)[C@@H](O)[C@H](O)[C@H]6O)CC[C@]5(C)[C@H]4CC[C@]3(C)[C@H]1[C@@H]2C` [Diosgenin glucoside] here?
A: 1057.302 RFU

Q: With `O=C(CO)[C@@H](O)[C@@H](O)[C@H](O)CO` [D-Tagatose] as the molecule, how does the “Lipase (RFU)” value read?
A: 939.2844 RFU

Q: Which “Lipase (RFU)” value does the source give for `OC1C(O)C(O)C(O)C(O)C1O` [D-chiro-Inositol] here?
A: 896.4132 RFU

Q: How did the “Lipase (RFU)” value turn out when `COc1ccc2c(c1OC)CN(C)CCc1cc3c(cc1C(=O)C2)OCO3` [Allocryptopine] was run?
A: 960.1838 RFU

Q: Which “Lipase (RFU)” value does the source give for `Nc1ncnc2c1ncn2[C@@H]1O[C@H](CSCC[C@H](N)C(=O)O)[C@@H](O)[C@H]1O` [SAH] here?
A: 641.7279 RFU

Q: For `O=C(/C=C/c1ccc(O)c(O)c1)O[C@H]1[C@H](O)C[C@](O)(C(=O)O)C[C@H]1O` [Cryptochlorogenic acid], which “Lipase (RFU)” value is on record?
A: 1264.679 RFU

Q: `CC(=O)C=Cc1ccccc1` [Benzylideneacetone] was tested. Which “Lipase (RFU)” value did it give?
A: 1109.291 RFU

Q: Heparan Sulfate was tested. Which “Lipase (RFU)” value did it give?
A: 1097.057 RFU

Q: With `C[C@@H](CN)C(=O)O` [(S)-b-aminoisobutyric acid] as the molecule, how does the “Lipase (RFU)” value read?
A: 859.5436 RFU

Q: With `N[C@@H](CC(=O)O)C(=O)[O-].[Na+]` [L-Aspartic aicd (sodium)] as the molecule, how does the “Lipase (RFU)” value read?
A: 708.7772 RFU and 1026.622 RFU

Q: Which “Lipase (RFU)” value does the source give for `COc1cc([C@H]2OC[C@@H]3C(c4cc(OC)c(O)c(OC)c4)OC[C@H]23)ccc1O` (single isomer, unassigned; (+)) [(+)-Medioresinol] here?
A: 1166.732 RFU

Q: Which “Lipase (RFU)” value does the source give for `Oc1cc(O)c2c(c1)OC(c1ccc(O)c(O)c1)C(O)C2O` (stereo not drawn) [Leucocyanidin] here?
A: 957.6226 RFU

Q: With `O=C(O)[C@H]1O[C@@H](Oc2c(-c3ccc(O)cc3)oc3cc(O)cc(O)c3c2=O)[C@H](O)[C@@H](O)[C@@H]1O` [Kaempferol 3-O-β-D-glucuronide] as the molecule, how does the “Lipase (RFU)” value read?
A: 1023.998 RFU

Q: Which “Lipase (RFU)” value does the source give for `N[C@@H](CCC(=O)N[C@@H](CSN=O)C(=O)NCC(=O)O)C(=O)O` [Nitrosoglutathione] here?
A: 688.3783 RFU

Q: How did the “Lipase (RFU)” value turn out when `C/C(=C\CC[C@@H](C)[C@H]1CC[C@@]2(C)C3=CC[C@H]4C(C)(C)[C@@H](O)CC[C@]4(C)C3=CC[C@]12C)CO` [Ganoderol B] was run?
A: 970.7443 RFU

Q: How did the “Lipase (RFU)” value turn out when `CC(C)=CCC[C@](C)(O[C@@H]1O[C@H](CO[C@@H]2OC[C@H](O)[C@H](O)[C@H]2O)[C@@H](O)[C@H](O)[C@H]1O)[C@H]1CC[C@]2(C)[C@@H]1[C@H](O)C[C@@H]1[C@@]3(C)CC[C@H](O[C@@H]4O[C@H](CO)[C@@H](O)[C@H](O)[C@H]4O[C@@H]4O[C@H](CO)[C@@H](O)[C@H](O)[C@H]4O)C(C)(C)[C@@H]3CC[C@]12C` [Ginsenoside Rb2] was run?
A: 872.7793 RFU

Q: Which “Lipase (RFU)” value does the source give for `COc1cc(O)c(C(=O)/C=C/c2ccccc2)c(O)c1` [Pinostrobin chalcone] here?
A: 969.4657 RFU

Q: `O=Cc1ccc[nH]1` [Pyrrole-2-carboxaldehyde] was tested. Which “Lipase (RFU)” value did it give?
A: 882.4774 RFU

Q: `NC(N)=NCCC[C@H](NC(=O)[C@@H](N)Cc1ccc(O)cc1)C(=O)O` [Kyotorphin] was tested. Which “Lipase (RFU)” value did it give?
A: 988.5967 RFU

Q: How did the “Lipase (RFU)” value turn out when Ursolic acid acetate was run?
A: 811.3971 RFU

Q: For `NCCS(=O)O` [Hypotaurine], which “Lipase (RFU)” value is on record?
A: 1147.047 RFU and 798.4494 RFU

Q: `C[C@]12CC[C@H](O)C[C@@H]1CC[C@@H]1[C@@H]2CC[C@]2(C)C(=O)CC[C@@H]12` [Epiandrosterone] was tested. Which “Lipase (RFU)” value did it give?
A: 760.9004 RFU

Q: `COc1c(-c2ccccc2)oc2cc(O)cc(O)c2c1=O` [Compound 3-O-Methylgalangin] was tested. Which “Lipase (RFU)” value did it give?
A: 819.4334 RFU

Q: `C[C@@H]1O[C@@H](O[C@H]2[C@H](Oc3cc(O)c4c(c3)O[C@H](c3ccc(O)c(O)c3)CC4=O)O[C@H](CO)[C@@H](O)[C@@H]2O)[C@H](O)[C@H](O)[C@H]1O` [Neoeriocitrin] was tested. Which “Lipase (RFU)” value did it give?
A: 1015.344 RFU

Q: Which “Lipase (RFU)” value does the source give for Notoginsenoside Fe here?
A: 902.3283 RFU

Q: Prosapogenin A was tested. Which “Lipase (RFU)” value did it give?
A: 965.3667 RFU

Q: Which “Lipase (RFU)” value does the source give for `CC(C)=CCC[C@](C)(O[C@@H]1O[C@H](CO[C@@H]2O[C@H](CO)[C@@H](O)[C@H](O)[C@H]2O)[C@@H](O)[C@H](O)[C@H]1O)[C@H]1CC[C@]2(C)[C@@H]1[C@H](O)C[C@@H]1[C@@]3(C)CC[C@H](O[C@@H]4O[C@H](CO)[C@@H](O)[C@H](O)[C@H]4O[C@@H]4O[C@H](CO)[C@@H](O)[C@H](O)[C@H]4O[C@@H]4OC[C@@H](O)[C@H](O)[C@H]4O)C(C)(C)[C@@H]3CC[C@]12C` [Notoginsenoside Fa] here?
A: 1075.493 RFU
